Among the data in ChEMBL document CHEMBL5728088, “Aryl sulfonohydrazides” (2020) are IC50 values, retold here.

Molecules are shown by their SMILES.

This test can be described thus: Biochemical Assay: Active Moz protein was expressed as N-terminal fusion protein with a His6 tag in BL21 E. coli cells. Protein purification was performed via nickel-immobilized metal ion affinity chromatography followed by gel filtration. […] The reactions were performed in assay buffer (100 mM Tris-HCl, pH 7.8, 15 mM NaCl, 1 mM EDTA, 0.01% Tween-20, 1 mM Dithiothreitol, and 0.02% m/v chicken egg white albumin). Reactions were set up with 0.4 μM Acetyl coenzyme A (AcCoA), 50 nM N-terminal histone H4 peptide (sequence […]-GGK-biotin), 10 nM MOZ enzyme, and an acetyl-lysine specific antibody (final dilution 1:10000). 11-point dilution series of the compounds of the invention were prepared in DMSO; a volume of 100 nL was transferred using a pin tool into assay plates containing substrates, before adding enzyme to start the reaction. Positive (no compound) and negative (AcCoA omitted) control reactions were included on the same plates and received the same amount of DMSO as the compound treated wells. After adding all reagents, the plates were sealed with adhesive seals and incubated for 90 minutes at room temperature. An additional 4 μL of assay buffer containing AlphaScreen® Protein A acceptor beads and Streptavidin donor beads (PerkinElmer, Waltham, Mass.) to a final concentration of 4 μg/mL was then added. […]. (Size exclusion chromatography separates by hydrodynamic size, large species first.)

As usually defined, the IC50 is the concentration that gives 50% inhibition.

On to `O=C(NNS(=O)(=O)c1ccc2ccccc2c1)c1cccc(-c2cccnc2)c1`, for which the IC50 is 13.1 µM. Under `O=C(NNS(=O)(=O)c1ccccc1F)c1cc(-c2ccc(F)cc2)ccc1F` stands 0.839 µM.
